Assay results reported in patent publication US9529131B2, “Polarizing plate” (NITTO DENKO CORPORATION, priority 2014, dated 2016).

Experiment: log P value (octanol/water partition coefficient)
Settings: for log P: shake flask method JIS Z 7260 or ChemDraw Ultra calculation, not stated which

**Q.** Which “log P” value does the source give for `CSc1ccc(C(=O)C(C)(C)N2CCOCC2)cc1` [IRGACURE 907, 2-methyl-1-(4-methylthiophenyl)-2-morpholinopropan-1-one] here?
**A.** 2.09

**Q.** For `C=CC(=O)OCCCCCCCCCOC(=O)C=C` [LIGHT ACRYLATE 1,9ND-A, 1,9-nonanediol diacrylate], which logP is on record?
**A.** 3.68

**Q.** For “bisphenol A-propylene oxide (2 mole) adduct di(meth)acrylate”, which “log P” value is on record?
**A.** 6.10

**Q.** Which “log P” value does the source give for `C=CC(=O)OCCCCCCCCCCOC(=O)C=C` [1,10-decanediol diacrylate] here?
**A.** 4.10

**Q.** For `C=CC(=O)OCC(C)OCC(C)OCC(C)OC(=O)C=C` (stereo not drawn) [TPGDA, tripropylene glycol diacrylate], which “log P” value is on record?
**A.** 1.68

**Q.** Which “log P” value does the source give for `C=CC(=O)OCCN=C=O` [Karenz AOI] here?
**A.** 1.6
